Non-standard residues stand in square brackets, D forms with d. Residues, ends and D or L forms follow the SMILES beside them.
Legend:
rats = assay: Tail flick analgesic test; assay type: in vivo; conditions: intranasally 0.005 mg/kg
From the text: Opium-like activity was studied in a classical way by […] tests on isolated organs: - Test GPI (Guang T.A, Kosterlitz H.W, Agonist and antagonist action of morphine like drugs on the guinea pigs isolated ileum, Br.J. Pharmacol., 1966, V.27N3.P.514-527 - Test MVD; Hughs J., Kosterlitz H.W., Leslie F.M, Effect of morphine on adrenergic transmission in mouse is different. Assessment of agonist and antagonist potencies of narcotics, Br.J. Pharmacol., 1975, V. 53, N3-P. 371-381) As well as tests to determine opium-like activities by the […] hot plate test (Aukier S.I., New hot plate tests to qualify analgesic and narcotic antagonist activities, Eur.J. Pharmacol., 174 - V.27 Ni p.1-4) and "Tail flick" on rats (D'Amour F.E., Smith D.L, A method for determining loss, Exp.Ther.,1974, V.72 Ni-p.74-79).
The analgesic activities of those peptides were tested by the "tail flick" method on rats which received intranasally a dose of 0.005 mg/kg. A real analgesic effect of 242 units was characteristic to the peptide H-Arg-Tyr-D-Ala-Phe-Gly-OH. Table 2 outlines the findings with regard to the opium-like activity for this peptide group.

## C[C@@H](NC(=O)[C@H](Cc1ccc(O)cc1)NC(=O)[C@@H](N)CCCNC(=N)N)C(=O)N[C@@H](Cc1ccccc1)C(=O)NCC(=O)O [H-Arg-Tyr-D-Ala-Phe-Gly-OH] (H-RY[dA]FG-OH)
rats
  analgesic effect: 242 units
alcohol
  solubility in alcohol: not well dissolvable in alcohol
chloroform
  solubility in chloroform: nonsoluble in chloroform
water
  solubility in water: dissolvable in water
